Experimental data reported in patent US6887658B2, “Methods of identifying non-specific inhibitors of biomolecules” (Northwestern University, priority 2001, dated 2005).
pIC50, pKd: −log10 of the molar value. Where two headings read alike, the source gives them in different places.

What was measured:
HIV Tar RNA = conditions: original target; read-out: IC50 Original Target(s): HIV Tar RNA; cited from earlier work
[1] = Dynamic light scattering (DLS); format: physicochemical
AmpC β-lactamase [2] = biological target: T1, AmpC β-lactamase (Escherichia coli, UniProt P00811); conditions: for ↑ IC50 vs. 10x β-lactamase: 10-fold increase in β-lactamase; for ↑ IC50 vs. 10x Enzyme: β-lactamase 10 nM vs 1 nM
T1 sequence (P00811 20-377 limits assumed): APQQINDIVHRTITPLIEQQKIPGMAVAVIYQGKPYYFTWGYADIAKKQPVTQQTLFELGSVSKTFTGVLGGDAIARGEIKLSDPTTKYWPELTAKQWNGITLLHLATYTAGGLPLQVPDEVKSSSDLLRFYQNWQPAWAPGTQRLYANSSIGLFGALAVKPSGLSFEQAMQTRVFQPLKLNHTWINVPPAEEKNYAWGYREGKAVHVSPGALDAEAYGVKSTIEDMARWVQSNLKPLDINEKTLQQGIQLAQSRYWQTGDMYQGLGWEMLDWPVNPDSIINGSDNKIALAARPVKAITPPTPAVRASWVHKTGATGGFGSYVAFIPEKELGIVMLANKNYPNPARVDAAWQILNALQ

chymotrypsin = chymotrypsin (Bos taurus, UniProt P00766); assay: chymotrypsin inhibition enzyme assay; format: biochemical
AmpC β-lactamase [3] = biological target: T1, AmpC β-lactamase; assay: biochemical
[4] = format: physicochemical; conditions: 625 μM in 20 mM Tris, pH 7.2
[5] = system: model enzymes (β-lactamase, chymotrypsin, DHFR, β-galactosidase); format: biochemical
prion = conditions: original target; read-out: IC50 Original Target(s): prion; cited from earlier work
[6] = biological target: triosephosphate isomerase (Plasmodium falciparum, UniProt Q07412); conditions: read-out: IC50 Original Target(s): TIM; cited from earlier work
Sequence of triosephosphate isomerase (Q07412 whole entry): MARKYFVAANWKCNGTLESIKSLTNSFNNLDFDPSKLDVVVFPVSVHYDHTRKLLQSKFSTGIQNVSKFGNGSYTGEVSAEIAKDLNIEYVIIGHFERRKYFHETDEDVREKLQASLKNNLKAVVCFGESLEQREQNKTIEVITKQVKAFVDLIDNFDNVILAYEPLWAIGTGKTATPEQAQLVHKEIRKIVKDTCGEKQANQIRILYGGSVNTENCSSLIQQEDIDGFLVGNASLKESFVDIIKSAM

insulin receptor = insulin receptor (Homo sapiens, UniProt P06213); conditions: original target; footnote b: Kd; read-out: Kd Original Target(s): insulin receptor; cited from earlier work
Sequence of insulin receptor (P06213 28-1382, species assumed): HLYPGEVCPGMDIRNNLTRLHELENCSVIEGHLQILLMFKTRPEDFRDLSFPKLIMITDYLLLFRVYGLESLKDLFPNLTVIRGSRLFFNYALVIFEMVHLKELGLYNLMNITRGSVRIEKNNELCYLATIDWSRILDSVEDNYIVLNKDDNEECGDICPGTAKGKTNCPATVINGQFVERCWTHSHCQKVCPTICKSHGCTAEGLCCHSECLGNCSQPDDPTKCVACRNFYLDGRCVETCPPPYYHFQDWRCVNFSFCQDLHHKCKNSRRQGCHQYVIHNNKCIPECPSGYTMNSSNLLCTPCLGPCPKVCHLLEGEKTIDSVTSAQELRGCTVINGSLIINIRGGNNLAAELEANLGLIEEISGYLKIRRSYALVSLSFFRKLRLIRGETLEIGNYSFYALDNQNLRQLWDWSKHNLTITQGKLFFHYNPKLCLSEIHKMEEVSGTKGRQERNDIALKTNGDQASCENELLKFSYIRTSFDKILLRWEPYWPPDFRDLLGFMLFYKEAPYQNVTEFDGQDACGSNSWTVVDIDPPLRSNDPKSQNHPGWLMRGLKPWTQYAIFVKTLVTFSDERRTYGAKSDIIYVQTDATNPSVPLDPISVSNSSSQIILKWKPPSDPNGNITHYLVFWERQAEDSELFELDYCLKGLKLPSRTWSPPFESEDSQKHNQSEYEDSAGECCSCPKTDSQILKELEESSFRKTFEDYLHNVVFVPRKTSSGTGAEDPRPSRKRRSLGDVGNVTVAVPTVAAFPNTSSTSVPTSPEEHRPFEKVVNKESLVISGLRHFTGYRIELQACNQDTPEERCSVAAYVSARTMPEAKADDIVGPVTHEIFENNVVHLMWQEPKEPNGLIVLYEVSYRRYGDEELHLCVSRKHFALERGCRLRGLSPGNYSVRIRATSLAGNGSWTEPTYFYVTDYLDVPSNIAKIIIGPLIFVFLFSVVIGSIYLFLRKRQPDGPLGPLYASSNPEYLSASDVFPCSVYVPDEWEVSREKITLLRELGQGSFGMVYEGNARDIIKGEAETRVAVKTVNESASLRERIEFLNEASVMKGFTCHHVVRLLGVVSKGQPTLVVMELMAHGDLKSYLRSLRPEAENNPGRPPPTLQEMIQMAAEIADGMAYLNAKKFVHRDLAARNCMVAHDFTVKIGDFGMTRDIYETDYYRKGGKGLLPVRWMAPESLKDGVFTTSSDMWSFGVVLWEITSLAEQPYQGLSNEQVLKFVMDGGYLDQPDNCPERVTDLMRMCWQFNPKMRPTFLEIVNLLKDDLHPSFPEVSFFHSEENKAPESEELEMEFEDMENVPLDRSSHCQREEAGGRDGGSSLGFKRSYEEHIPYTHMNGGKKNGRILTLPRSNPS

β-galactosidase = β-galactosidase (Escherichia coli, UniProt P00722); assay: biochemical; conditions: for ↑ IC50 in the presence of BSA, against β-galactosidase: 0.1 mg/mL BSA
Sequence of β-galactosidase (P00722 2-1024 limits assumed): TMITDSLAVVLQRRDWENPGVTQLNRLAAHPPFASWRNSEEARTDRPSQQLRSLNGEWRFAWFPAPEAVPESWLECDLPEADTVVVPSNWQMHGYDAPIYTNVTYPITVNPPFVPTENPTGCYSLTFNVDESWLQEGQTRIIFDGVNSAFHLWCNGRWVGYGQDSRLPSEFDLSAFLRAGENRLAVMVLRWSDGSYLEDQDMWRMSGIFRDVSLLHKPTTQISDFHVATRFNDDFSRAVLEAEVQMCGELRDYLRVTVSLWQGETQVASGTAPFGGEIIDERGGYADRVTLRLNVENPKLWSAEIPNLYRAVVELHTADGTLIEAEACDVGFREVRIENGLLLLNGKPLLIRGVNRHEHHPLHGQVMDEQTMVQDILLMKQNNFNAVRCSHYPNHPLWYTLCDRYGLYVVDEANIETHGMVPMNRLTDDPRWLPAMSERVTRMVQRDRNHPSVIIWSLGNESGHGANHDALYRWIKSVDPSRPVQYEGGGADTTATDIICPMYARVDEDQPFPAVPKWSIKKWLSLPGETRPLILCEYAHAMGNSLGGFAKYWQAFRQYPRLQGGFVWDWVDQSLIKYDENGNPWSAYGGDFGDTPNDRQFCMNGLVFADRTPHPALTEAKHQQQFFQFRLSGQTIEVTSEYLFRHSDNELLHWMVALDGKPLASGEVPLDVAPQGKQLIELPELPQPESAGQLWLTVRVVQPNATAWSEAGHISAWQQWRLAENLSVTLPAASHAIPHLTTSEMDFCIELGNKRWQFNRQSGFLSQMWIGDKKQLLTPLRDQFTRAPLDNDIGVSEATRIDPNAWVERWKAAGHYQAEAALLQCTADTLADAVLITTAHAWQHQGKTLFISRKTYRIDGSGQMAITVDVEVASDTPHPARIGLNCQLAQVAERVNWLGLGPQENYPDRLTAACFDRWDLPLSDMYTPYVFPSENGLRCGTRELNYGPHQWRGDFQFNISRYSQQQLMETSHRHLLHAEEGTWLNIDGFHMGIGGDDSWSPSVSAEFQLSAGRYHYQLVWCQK

integrase = conditions: original target; read-out: IC50 Original Target(s): integrase; cited from earlier work
[7] = biological target: phosphoinositide 3-kinase; conditions: original target; read-out: IC50 Original Target(s): PI3K; cited from earlier work
thymidylate synthase = conditions: original target; read-out: IC50 Original Target(s): TS; cited from earlier work
kinesin = conditions: original target; read-out: IC50 Original Target(s): kinesin; cited from earlier work
[8] = system: neuronal nitric oxide synthase; conditions: original target; read-out: IC50 Original Target(s): nNOS; cited from earlier work
[9] = system: endothelial nitric oxide synthase; conditions: original target; read-out: IC50 Original Target(s): eNOS; cited from earlier work
[10] = Table 4, 50 mM KPi, at the concentration under DLS conc.
[11] = Table 6, incubation with β-lactamase, 5 min
[12] = Table 6, read-out: IC50 vs. chymo.
[13] = Table 2, 5 min preincubation of inhibitor and enzyme vs none

In the case of `O=S(=O)(O)c1cc(O)c(/N=N/c2ccc3ccccc3c2O)c2ccccc12`, the pIC50 (HIV Tar RNA) is listed as 4.30.

With `O=C1C2C(C(=O)N1Nc1ccc([N+](=O)[O-])cc1[N+](=O)[O-])[C@@]1(Cl)C(Cl)=C(Cl)[C@]2(Cl)C1(Cl)Cl` (stereo partly drawn) the “Diameter, 5 mM KPi” value ([1]; DLS in 5 mM KPi) was 143.5 ± 7.9 nm, the “DLS Diameter” value [1, 10] was 418.6 ± 38.8 nm and the “DLS Intensity” value [1, 10] was 24.9 ± 3.1 kcps.

With `O=C(N/N=C/c1ccccc1O)C(=O)N/N=C/c1ccccc1O` the “Diameter, 5 mM KPi” value ([1]; DLS in 5 mM KPi) was 389.3 ± 55.4 nm, the “Diameter, 500 mM KPi” value ([1]; DLS in 500 mM KPi) was 426.6 ± 23.8 nm and the “DLS Diameter” value [1, 10] was 394.6 ± 12.5 nm. The “DLS Intensity” value [1, 10] was 26.4 ± 5.1 kcps.

For `O=C(O)c1cc(-c2ccc(Cl)cc2)nc(-c2ccc(Nc3ccc(Cl)cc3)cc2)c1`, the “↑ IC50 vs. 10x β-lactamase” value (AmpC β-lactamase [2]; Table 6) was 4-fold, the “↓ IC50 with Incubation” value (AmpC β-lactamase [2]; [11]) was 12-fold and the pIC50 (chymotrypsin; [12]) was 5.70. The pIC50 (AmpC β-lactamase [3]) was 5.70.

With `CC(C)(C)c1ccc(-c2cc(C(=O)O)cc(-c3ccc(Cl)c(O)c3)n2)cc1` the “↑ IC50 vs. 10x β-lactamase” value (AmpC β-lactamase [2]; Table 6) was 12-fold, the “↓ IC50 with Incubation” value (AmpC β-lactamase [2]; [11]) was >50-fold and the pIC50 (chymotrypsin; [12]) was 4.89. The pIC50 (AmpC β-lactamase [3]) was 5.40.

For `CCCC[n+]1ccc(-c2cc(C(=O)O)cc(-c3ccc(Cl)cc3)n2)cc1`, the “↑ IC50 vs. 10x β-lactamase” value (AmpC β-lactamase [2]; Table 6) was 20-fold, the “↓ IC50 with Incubation” value (AmpC β-lactamase [2]; [11]) was 24-fold and the pIC50 (AmpC β-lactamase [3]) was 5.10.

For `O=C1Nc2cccc(O)c2C1Cc1ccc2c(c1)CCCC2` (stereo not drawn), the “↑ IC50 vs. 10x β-lactamase” value (AmpC β-lactamase [2]; Table 6) was 6-fold, the “↓ IC50 with Incubation” value (AmpC β-lactamase [2]; [11]) was 3-fold and the pIC50 (chymotrypsin; [12]) was 4.40. It also gave a pIC50 (AmpC β-lactamase [3]) of 4.82.

For `O=S(=O)(O)Cc1cc2cc(S(=O)(=O)O)c(/N=N/c3ccc(Br)cc3S(=O)(=O)O)c(O)c2c(O)c1/N=N/c1ccc(Br)cc1S(=O)(=O)O`, the “↑ IC50 vs. 10x β-lactamase” value (AmpC β-lactamase [2]; Table 6) was >50-fold, the “↓ IC50 with Incubation” value (AmpC β-lactamase [2]; [11]) was 2-fold and the pIC50 (AmpC β-lactamase [3]) was 4.10.

In the case of `CC(C)c1ccc(/C=C2/C(=O)Nc3ccccc32)cc1` [3-(4-isopropylbenzylidene)indolin-2-one], the “Diameter, 5 mM KPi” value ([1]; DLS in 5 mM KPi) was 247.1 ± 12.8 nm, the “Diameter, 500 mM KPi” value ([1]; DLS in 500 mM KPi) was 494.3 ± 48.1 nm and the “DLS Diameter” value [1, 10] was 379.0 ± 14.1 nm. For the same compound, the “DLS Intensity” value [1, 10] was 43.8 ± 5.7 kcps.

In the case of `O=S(=O)(O)c1cccc2cccc(Nc3ccccc3)c12` [ANS, 8-anili-no-1-naphthalene-sulfonic acid], the “particles observed by TEM” value [4] was “Particles were not observed”, the “inhibition of the model enzymes” value [5] was “does not inhibit the model enzymes” and the “DLS Diameter” value [1] was “No particles”. For the same compound, the “DLS Intensity” value [1] was 0.5 ± 0.1 kcps, the “Diameter, 5 mM KPi” value [1] was “No particles” and the “Diameter, 50 mM KPi” value [1] was “No particles”. For the same compound, the “Diameter, 500 mM KPi” value [1] was “No particles”.

In the case of `OB(O)c1cc2ccccc2s1` [Benzo[b]thiophene-2-boronic acid], the “↓ IC50 with Incubation” value (AmpC β-lactamase [2]; [13]) was “No change”, the “↑ IC50 vs. 10x Enzyme” value (AmpC β-lactamase [2]; Table 2) was “No change” and the “particle formation in solution by DLS (autocorrelation function)” value (from here on “particle formation in solution by DLS”) ([1]; 50 mM KPi) was “not observed to form particles”. For the same compound, the “Diameter, 5 mM KPi” value ([1]; DLS in 5 mM KPi) was “No particles”, the “Diameter, 50 mM KPi” value ([1]; DLS in 50 mM KPi) was “No particles” and the “Diameter, 500 mM KPi” value ([1]; DLS in 500 mM KPi) was “No particles”. The “DLS Diameter” value [1, 10] was “No particles” and the “DLS Intensity” value [1, 10] was 0.9 ± 0.2 kcps.

In the case of `Nc1c(/N=N/c2ccc(-c3ccc(/N=N/c4cc(S(=O)(=O)O)c5ccccc5c4N)cc3)cc2)cc(S(=O)(=O)O)c2ccccc12` [Congo Red], the “inhibition of the model enzymes” value [5] is listed as “inhibit the model enzymes”, the pIC50 (prion) is listed as 6.00 and the “DLS Diameter” value [1] is listed as 202.6 ± 22.5 nm. For the same compound, the “DLS Intensity” value [1] was 131.1 ± 64.3 kcps, the “particle formation in solution by DLS” value [1] was “did form particles detectable by DLS” and the pIC50 [6] was 4.52.

In the case of `O=C1OC2(c3cc(I)c(O)c(I)c3Oc3c2cc(I)c(O)c3I)c2c(Cl)c(Cl)c(Cl)c(Cl)c21` [Rose Bengal lactone], the pKd (insulin receptor) is listed as 4.70.

In the case of `O=C1O/C(=C\Nc2ccc(Oc3ccccc3)cc2)c2ccccc21` [drawing 3], the pIC50 (AmpC β-lactamase [3]) was 5.30.

For `Oc1ccc(/N=N/c2ccc(Br)cc2)cc1` [drawing 33], the “↑ IC50 in the presence of BSA, against β-galactosidase” value (β-galactosidase) was 8 fold.

In the case of `O=C1O/C(=C\Nc2ccc(Oc3ccccc3)cc2)c2ccccc21` [drawing 34], the “↑ IC50 in the presence of BSA, against β-galactosidase” value (β-galactosidase) was 9 fold.

With `Oc1ccc(/N=N/c2ccc(Br)cc2)cc1` [drawing 40] the “Diameter, 5 mM KPi” value ([1]; DLS in 5 mM KPi) was 140.2 ± 12.1 nm, the “Diameter, 500 mM KPi” value ([1]; DLS in 500 mM KPi) was 267.4 ± 24.5 nm and the “DLS Diameter” value [1, 10] was 176.2 ± 7.9 nm. The “DLS Intensity” value [1, 10] was 12.6 ± 3.9 kcps.

In the case of `O=C1O/C(=C\Nc2ccc(Oc3ccccc3)cc2)c2ccccc21` [drawing 41], the “DLS Diameter” value [1, 10] was 94.7 ± 4.2 nm and the “DLS Intensity” value [1, 10] was 16.2 ± 1.1 kcps.

For `O=c1c(O)c(-c2ccc(O)c(O)c2)oc2cc(O)cc(O)c12` [quercetin], the pIC50 (β-galactosidase; Table 1, 37° C.) is listed as 3.66, the pIC50 (integrase) is listed as 4.96 and the pIC50 [7] is listed as 5.42.

For `O=C1C(I)=CC(=C(c2cc(I)c(O)c(I)c2)c2ccccc2C(=O)O)C=C1I` [tetraiodophenolphthalein], the pIC50 (thymidylate synthase) is listed as 5.52, the pIC50 (kinesin) is listed as 4.52 and the “particle formation in solution by DLS” value ([1]; 50 mM KPi) is listed as “presence of particles”. For the same compound, the “Diameter, 5 mM KPi” value ([1]; DLS in 5 mM KPi) was 86.2 ± 10.5 nm, the “Diameter, 500 mM KPi” value ([1]; DLS in 500 mM KPi) was 320.4 ± 38.8 nm and the “DLS Diameter” value [1, 10] was 153.4 ± 26.0 nm. The “DLS Intensity” value [1, 10] was 42.2 ± 3.9 kcps and the “DLS mean diameter in the TEM conditions” value ([1]; same conditions as TEM) was 83.2 ± 6.5 nm.

With tris (dicarboxymethylene) fullerene-C3 the “↓ IC50 with Incubation” value (AmpC β-lactamase [2]; [13]) was 2-fold, the “↑ IC50 vs. 10x Enzyme” value (AmpC β-lactamase [2]; Table 2) was >50-fold and the pIC50 (AmpC β-lactamase [2]; read-out: IC50 β-lactamase, Table 1, 50 mM KPi pH 7.0, 5 min incubation, 1 nM enzyme) was 5.15. The pIC50 [8] was 4.62, the pIC50 (chymotrypsin; Table 1, read-out: IC50 Chymotrypsin) was 4.22 and the pIC50 [9] was 4.77.
